In patent US20110105389A1 (priority 2009, published 2011):
Like-named read-outs stand apart in the source and are kept apart here.

Tests used:
[1] = Caco-2 permeability, Method B7; format: in vitro ADME, human; conditions: human; for Papp A→B at 60 min, 10 μM / Papp B→A at 60 min, 10 μM: Caco-2, 10 μM, without P-gp inhibitor; for efflux ratio at 60 min, 10 μM: Caco-2, without P-gp inhibitor, read-out: Efflux ratio Papp B2A/Papp A2B
Description: (§1) B7. Determination of Caco-2 Permeability
(§2) The Caco-2 cell line, derived from a human colorectal carcinoma, has become an established in vitro model for the prediction of drug absorption across the human intestine. (Sun, D.; Yu, L. X.; Hussain, M. A.; Wall, D. A.; Smith, R. L.; Amidon, G. L. Curr. Opin. Drug Discov. Devel. 2004, 7, 75-85; Bergstrom, C. A. Basic Clin. Pharmacol. Toxicol. 2005, 96, 156-61; Balimane, P. V.; Han, Y. H.; Chong, S. AAPS J. 2006, 8, E1-13; Shah, P.; Jogani, V.; Bagchi, T.; Misra, A. Biotechnol. Prog. 2006, 22, 186-198.) When cultured on semi-permeable membranes, Caco-2 cells differentiate into a highly functionalized epithelial barrier with remarkable morphological and biochemical similarity to the small intestinal columnar epithelium. Fully differentiated cell monolayers can be used to assess the membrane transport properties of novel compounds.
(§3) Assays to determine the permeability of compounds of the invention utilizing Caco-2 cells are commercially available, for example NoAb BioDiscoveries (Mississaugua, ON, Canada) and Absorption Systems (Exton, Pa., USA).
(§4) Permeability across the Caco-2 cell layer was determined by growing the cells on a membrane placed between two (donor and acceptor) chambers. Drug candidates are typically added to the apical (A) side of the cell layer and their appearance in the basolateral (B) side is measured over incubation time. Permeability in this direction represents intestinal absorption. Permeability may also be determined from the basolateral to the apical side of the Caco-2 cell. […]
(§5) Permeability (10 μM) for compounds of the invention in the apical to basolateral and basolateral to apical direction were tested in duplicate. Samples will be collected from the donor and acceptor chambers at the beginning (0 min) and following 60 min of incubation at 37° C. and stored frozen at −70° C. until bioanalysis. Samples for each test compound generated from the Caco-2 permeability assay were further analyzed by LC-MS-MS. The permeability of [^3H]-mannitol and [^3H]-propranolol were determined in parallel as controls.
(§6) The permeability coefficient (Papp) of each compound and radiolabeled standard was determined using the following equation: […]
(§7) where dQ/dT represents the permeability rate, Ci denotes the initial concentration in the donor compartment, and A represents the surface area of the filter. Ci is determined from the mean concentration of duplicate samples taken prior to addition to the donor compartment. Permeability rates were calculated by plotting the cumulative amount of compound measured in the acceptor compartment over time and determining the slope of the line by linear regression analysis. The duplicate and mean apical to basolateral and basolateral to apical Papp's were reported for each compound and standard. […]

hERG channel = target: T1, hERG channel (Homo sapiens, UniProt Q12809); test: hERG channel inhibition (whole cell IKr currents, HEK293), Method B16; format: cell-based; conditions: in comparison to vehicle (0.1% DMSO) controls, up to 100 μM
T1 construct: expressed in transfected cells; host or cells: HEK293
Description: B16. hERG Channel Inhibition
Direct interactions of compounds with the hERG channel account for the majority of known cases of cardiotoxicity. […]

CYP3A4 = CYP3A4 (Homo sapiens, UniProt P08684); test: Cytochrome P450 inhibition, Method B6 (two substrates); conditions: read-out: IC50 CYP 3A4
Caco-2 cells = test: Caco-2 permeability, Method B7; format: in vitro ADME, human; conditions: for A to B Mean Papp / B to A Mean Papp: Caco-2, 10 μM, without P-gp inhibitor; for Efflux ratio Papp B2A/Papp A2B: Caco-2, without P-gp inhibitor
Description: as §1, §2, §3, §4, §5, §6, §7

CYP2D6 = CYP2D6 (Homo sapiens, UniProt P10635); test: Cytochrome P450 inhibition, Method B6; conditions: read-out: IC50 CYP 2D6; Table 4a; dextromethorphan used as substrate
[2] = Table 4b, midazolam used as substrate
[3] = Table 4a, nifedipine used as substrate

Chain of CYP3A4 (P08684 whole entry): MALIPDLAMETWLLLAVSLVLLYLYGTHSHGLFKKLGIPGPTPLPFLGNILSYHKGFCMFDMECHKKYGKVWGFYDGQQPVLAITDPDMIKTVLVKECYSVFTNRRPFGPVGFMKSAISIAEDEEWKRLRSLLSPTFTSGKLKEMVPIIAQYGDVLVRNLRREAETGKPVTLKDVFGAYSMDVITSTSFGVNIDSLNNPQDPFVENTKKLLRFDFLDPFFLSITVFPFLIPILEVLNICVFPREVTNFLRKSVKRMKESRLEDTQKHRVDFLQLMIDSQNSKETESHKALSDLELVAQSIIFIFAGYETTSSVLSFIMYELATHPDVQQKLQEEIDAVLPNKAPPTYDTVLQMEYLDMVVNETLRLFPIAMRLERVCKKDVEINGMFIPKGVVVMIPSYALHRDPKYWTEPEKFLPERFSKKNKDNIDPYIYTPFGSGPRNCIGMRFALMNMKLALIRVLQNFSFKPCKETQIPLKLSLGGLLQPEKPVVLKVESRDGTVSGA
T1 sequence (Q12809 whole entry): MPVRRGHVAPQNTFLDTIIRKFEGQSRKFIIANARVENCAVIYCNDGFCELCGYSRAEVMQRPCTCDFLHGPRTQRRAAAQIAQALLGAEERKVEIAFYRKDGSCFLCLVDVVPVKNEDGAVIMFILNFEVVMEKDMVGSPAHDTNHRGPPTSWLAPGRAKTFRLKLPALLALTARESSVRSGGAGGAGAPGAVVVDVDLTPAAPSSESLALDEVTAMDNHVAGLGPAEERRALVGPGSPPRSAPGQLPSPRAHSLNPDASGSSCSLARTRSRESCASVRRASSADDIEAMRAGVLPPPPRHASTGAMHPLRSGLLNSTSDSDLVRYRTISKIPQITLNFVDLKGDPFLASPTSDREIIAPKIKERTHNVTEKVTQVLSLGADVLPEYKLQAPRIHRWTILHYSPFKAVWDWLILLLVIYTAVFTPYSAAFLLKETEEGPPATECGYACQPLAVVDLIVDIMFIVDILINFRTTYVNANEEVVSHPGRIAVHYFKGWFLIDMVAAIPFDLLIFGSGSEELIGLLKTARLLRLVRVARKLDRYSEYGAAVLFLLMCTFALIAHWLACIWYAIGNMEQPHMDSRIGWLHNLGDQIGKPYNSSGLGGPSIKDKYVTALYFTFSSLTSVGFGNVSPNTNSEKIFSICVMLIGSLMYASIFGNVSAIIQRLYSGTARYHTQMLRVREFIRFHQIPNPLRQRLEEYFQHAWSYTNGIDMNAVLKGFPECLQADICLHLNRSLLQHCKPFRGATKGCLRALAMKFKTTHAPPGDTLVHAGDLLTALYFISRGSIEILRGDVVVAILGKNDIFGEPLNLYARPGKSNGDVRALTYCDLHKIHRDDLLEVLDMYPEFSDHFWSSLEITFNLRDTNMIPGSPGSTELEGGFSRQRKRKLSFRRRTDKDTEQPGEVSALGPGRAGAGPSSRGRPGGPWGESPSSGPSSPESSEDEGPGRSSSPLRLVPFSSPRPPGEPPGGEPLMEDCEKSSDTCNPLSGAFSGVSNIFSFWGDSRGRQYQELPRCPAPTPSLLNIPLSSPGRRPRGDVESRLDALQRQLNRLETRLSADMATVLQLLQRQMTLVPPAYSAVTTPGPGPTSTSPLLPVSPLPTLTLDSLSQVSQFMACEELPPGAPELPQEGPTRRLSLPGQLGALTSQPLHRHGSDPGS
Chain of CYP2D6 (P10635 whole entry): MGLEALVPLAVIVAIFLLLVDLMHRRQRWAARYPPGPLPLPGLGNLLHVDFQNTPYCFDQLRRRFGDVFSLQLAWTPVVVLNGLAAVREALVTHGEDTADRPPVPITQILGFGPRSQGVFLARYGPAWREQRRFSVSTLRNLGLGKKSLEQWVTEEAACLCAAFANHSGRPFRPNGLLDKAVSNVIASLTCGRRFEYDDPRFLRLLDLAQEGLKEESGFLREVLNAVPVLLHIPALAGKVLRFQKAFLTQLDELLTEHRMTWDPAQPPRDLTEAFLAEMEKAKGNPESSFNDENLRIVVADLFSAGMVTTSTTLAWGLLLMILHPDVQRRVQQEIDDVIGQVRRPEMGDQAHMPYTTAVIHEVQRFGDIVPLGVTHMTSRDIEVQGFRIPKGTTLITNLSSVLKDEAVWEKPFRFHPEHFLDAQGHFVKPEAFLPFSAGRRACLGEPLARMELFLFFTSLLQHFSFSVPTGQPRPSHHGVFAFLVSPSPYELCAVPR

Structure (SMILES) | Papp A→B at 60 min, 10 μM [1] | Papp B→A at 60 min, 10 μM [1] | efflux ratio at 60 min, 10 μM [1] | further results
CC(C)[C@@H]1NCCOc2ccccc2C#C[C@@H](C)NC(=O)[C@@H](Cc2ccccc2)NC(=O)[C@H](C(C)O)N(C)C1=O (stereo partly drawn) [Compound 1688] | 0.131 ×10⁻⁶ cm/s | 41.8 ×10⁻⁶ cm/s | 318 | –
CC(C)[C@@H]1NCCOc2ccccc2C#CCNC(=O)[C@@H](Cc2ccccc2)NC(=O)[C@H](C(C)O)N(C)C1=O (stereo partly drawn) [Compound 1712] | – | – | – | effect on hERG channel function (hERG channel): no significant effect
CC(C)[C@@H]1NCCOc2ccccc2C[C@H](O)[C@@H](C)NC(=O)[C@@H](Cc2cccc(F)c2)NC(=O)[C@H](C(C)O)N(C)C1=O (stereo partly drawn) [Compound 1503] | 0.11 ×10⁻⁶ cm/s | 12 ×10⁻⁶ cm/s | 109 | –
CC(C)C1NCCOc2cc(F)ccc2C#CCNC(=O)C(Cc2c[nH]c3ccccc23)NC(=O)C(C(C)O)N(C)C1=O (stereo not drawn) [Compound 1693] | – | – | – | IC50 (CYP3A4; [2]): 2.2 µM
CC(O)[C@H]1C(=O)N[C@H](Cc2c[nH]c3ccccc23)C(=O)N[C@H](C)C#Cc2ccc(F)cc2O[C@H](C)CN[C@@H](C2(C)CC2)C(=O)N1C (stereo partly drawn) [Compound 1720] | – | – | – | IC50 (CYP3A4; [2]): 1.6 µM
CC(C)[C@@H]1NCC2CCc3cccc(c3O2)CCCNC(=O)[C@@H](Cc2ccccc2)NC(=O)[C@H](C(C)O)N(C)C1=O (stereo partly drawn) [Compound 1777] | – | – | – | A to B Mean Papp (Caco-2 cells): 0.274 ×10⁻⁶ cm/s; B to A Mean Papp (Caco-2 cells): 53.5 ×10⁻⁶ cm/s; Efflux ratio Papp B2A/Papp A2B (Caco-2 cells): 195; IC50 (CYP2D6): 11.8 µM; IC50 (CYP3A4; [3]): 6 µM
CC[C@@H]1NCC2CCc3cccc(c3O2)CCCNC(=O)[C@@H](Cc2ccccc2)NC(=O)[C@H](C(C)O)N(C)C1=O (stereo partly drawn) [Compound 1780] | 0.099 ×10⁻⁶ cm/s | 29.5 ×10⁻⁶ cm/s | 297 | –
CC(O)[C@H]1C(=O)N[C@H](Cc2ccccc2)C(=O)NCCCc2cccc3c2OC(CC3)CN[C@@H](C2CC2)C(=O)N1C (stereo partly drawn) [Compound 1778] | 0.193 ×10⁻⁶ cm/s | 32.7 ×10⁻⁶ cm/s | 169 | –
CC(C)[C@@H]1NCCOc2ccccc2C2CCC(C2)NC(=O)[C@@H](Cc2c[nH]c3ccccc23)NC(=O)[C@H](C(C)O)N(C)C1=O (stereo partly drawn) [Compound 1843] | – | – | – | A to B Mean Papp (Caco-2 cells): 0.142 ×10⁻⁶ cm/s; B to A Mean Papp (Caco-2 cells): 13.4 ×10⁻⁶ cm/s; Efflux ratio Papp B2A/Papp A2B (Caco-2 cells): 95; IC50 (CYP2D6): 7.7 µM; IC50 (CYP3A4; [3]): 6.5 µM
CC[C@@H]1CCc2ccc(F)cc2OCCN[C@@H](C(C)C)C(=O)N(C)[C@@H](C(C)O)C(=O)N[C@H](Cc2c[nH]c3ccccc23)C(=O)N1 (stereo partly drawn) [Compound 1505] | 0.091 ×10⁻⁶ cm/s | 26.7 ×10⁻⁶ cm/s | 299 | –

The next lines start with results.

Papp A→B at 60 min, 10 μM [1] | Papp B→A at 60 min, 10 μM [1] | efflux ratio at 60 min, 10 μM [1] | Structure (SMILES) | further results
0.171 ×10⁻⁶ cm/s | 36.9 ×10⁻⁶ cm/s | 216 | CC(C)[C@@H]1NCCOc2cccc(F)c2C#CCNC(=O)[C@@H](Cc2ccccc2)NC(=O)[C@H](C(C)O)N(C)C1=O (stereo partly drawn) [Compound 1929] | effect on hERG channel function (hERG channel): no significant effect
0.291 ×10⁻⁶ cm/s | 58.9 ×10⁻⁶ cm/s | 203 | CC(C)[C@@H]1NCCOc2ccccc2C2CCC(C2)NC(=O)[C@@H](Cc2ccc(F)cc2)NC(=O)[C@H](C(C)O)N(C)C1=O (stereo partly drawn) [Compound 1903] | –
0.097 ×10⁻⁶ cm/s | 28 ×10⁻⁶ cm/s | 288 | CC(O)[C@H]1C(=O)N[C@H](Cc2ccccc2)C(=O)NCC#Cc2c(F)cccc2OCCN[C@@H](C2(C)CC2)C(=O)N1C (stereo partly drawn) [Compound 1876] | –
0.144 ×10⁻⁶ cm/s | 21.7 ×10⁻⁶ cm/s | 151 | CC(O)[C@H]1C(=O)N[C@H](Cc2ccccc2)C(=O)NCC#Cc2ccccc2OCCN[C@@H](C2(C)CC2)C(=O)N1C (stereo partly drawn) [Compound 1878] | –
0.266 ×10⁻⁶ cm/s | 64.2 ×10⁻⁶ cm/s | 241 | CC(C)[C@@H]1NCCOc2ccccc2C2CCC(C2)NC(=O)[C@@H](Cc2ccccc2)NC(=O)[C@H](C(C)O)N(C)C1=O (stereo partly drawn) [Compound 1848] | effect on hERG channel function (hERG channel): no significant effect
0.112 ×10⁻⁶ cm/s | 42.6 ×10⁻⁶ cm/s | 380 | CC(O)[C@H]1C(=O)N[C@H](Cc2ccccc2)C(=O)NCC#Cc2ccc(F)cc2OCCN[C@@H](C2(C)CC2)C(=O)N1C (stereo partly drawn) [Compound 1918] | –
